According to patent US20140088114A1, “FUSED BICYCLIC KINASE INHIBITORS” (OSI Pharmaceuticals ,LLC, priority 2011, published 2014):

Tests used:
[1] = molecular target: T1, c-MET (Homo sapiens, UniProt P08581); assay: MET cell mechanistic assay (MKN45), phosphorylated MET ELISA; format: cell-based; settings: MKN45 cell line, 4 hours incubation, inhibition of phosphorylated MET, at least duplicate experiments; read-out: MET mech IC50
T1 construct: endogenous in cells; host or cells: MKN45
Method: The cellular activity of the compounds of the present invention against c-MET may be determined by the following procedure. MKN45 cells were plated in Falcon 3072 96-well plates in growth media (RPMI, 10% FBS, 1% L-glutamine) at a density of 5000 cells/well and incubated at 37° C., 5% CO2 overnight. The following day, one-tenth volume of a 10× concentration of compounds was added to the wells in a 6-point dilution series. The dilutions series was composed of an initial 1:5 dilution in DMSO, followed by a 1:10 dilution in growth media, for a final DMSO concentration on cells of 0.5%. Control wells were treated with 0.5% DMSO. The typical range of dilution was 10 μM to 3 nM. Once compound was added to the cells, plates were incubated for 4 hours at 37° C., 5% CO2. Plates were then washed in PBS, and lysed in triton-based lysis buffer. Lysates were transferred to a precoated capture plate made by Biosource (Cat #KHO0281). The phosphorylated MET levels were measured by incubating with a rabbit polyclonal antibody against phosphorylated MET ([pYpYpY1230/1234/1235]) followed by an anti-rabbit antibody conjugated to HRP. Signal was measured on a Wallac Victor plate reader at 450 nm. The DMSO signal of the control wells was defined as 100% and the percent of inhibition of phosphorylated MET was expressed as percent of control. IC50 values were determined from the percent of control data using a standard four-parameter model.
The IC50 values of exemplary compounds of the present invention determined in a MET cell mechanistic assay using the MKN45 cell line according to the procedures described herein in at least duplicate experiments are abbreviated as follows and are shown in Table 1: A, IC50≦0.03 μM; B, 0.03 μM<IC50≦0.1 μM; C, 0.1 μM<IC50≦1 μM; D, 1 μM<IC50≦3 μM; ND, not determined. The Example # of Table 1 corresponds to the compound Example number as illustrated in the Examples section. […]

[2] = molecular target: T2, Aurora B (Homo sapiens, UniProt Q96GD4); assay: Aurora B cell mechanistic assay (HT-29), phospho-Histone H3 (Ser10) ELISA; format: cell-based; settings: HT-29 cell line, inhibition of phospho-Histone H3 (Ser10), at least duplicate experiments (italicized if single); read-out: Aurora B mech IC50
T2 construct: HT-29 cells grown in complete growth media; endogenous in cells; host or cells: HT-29
T2 sequence (Q96GD4 whole entry): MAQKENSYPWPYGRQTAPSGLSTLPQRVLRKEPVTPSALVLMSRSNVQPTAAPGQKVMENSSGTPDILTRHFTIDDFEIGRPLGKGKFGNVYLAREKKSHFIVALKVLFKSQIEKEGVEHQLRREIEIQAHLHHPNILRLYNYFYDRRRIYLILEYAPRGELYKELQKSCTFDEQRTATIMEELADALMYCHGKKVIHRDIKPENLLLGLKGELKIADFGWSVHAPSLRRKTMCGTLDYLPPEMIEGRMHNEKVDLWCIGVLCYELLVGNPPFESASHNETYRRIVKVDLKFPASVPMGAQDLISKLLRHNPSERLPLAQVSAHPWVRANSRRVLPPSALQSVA
Method: The cellular activity of the compounds of the present invention against Aurora B may be determined by the following procedure. HT-29 cells grown in complete growth media (McCoy's 5A, 10% FCS, 1% L-glutamine) were plated into wells of a 96 well tissue culture plate (Falcon 3072) at a cell density of 4×10^4 cells/0.09 ml media/well. Cells were subsequently incubated overnight in a 5% CO2 humidified 37° C. incubator. The following day 10 μl of a 10× stock of test compound serially diluted in media was added to the cells and incubated for 1 h at 37° C. at which time Calyculin A (Cell Signaling #9902) was added at a concentration of 100 nM and cells incubated for an additional 30 minutes in a 5% CO2 humidified 37° C. incubator. Media was then aspirated and cells lysed using a Triton based lysis buffer. Lysates were transferred to a pre-coated anti-Histone H3 antibody coated plate supplied by Cell Signaling in their PathScan phospho-Histone H3 (Ser10) ELISA kit (#7155). After an overnight incubation with lysate the ELISA was continued following the manufacturer's instructions. Signal was measured on a Wallac Victor plate reader at 450 nm. DMSO control treated cells served as 100% signal and an Aurora B kinase inhibitor served as 100% inhibition. The percent inhibition of phospho-Histone H3 (Ser10) was expressed as % control. IC50 values were calculated from the percent control data using a standard four-parameter model.
The IC50 values of exemplary compounds of the present invention determined in a Aurora B cell mechanistic assay using the HT-29 cell line according to the procedures described herein in at least duplicate experiments are abbreviated as follows and are shown in Table 4: A, IC50≦0.03 μM; B, 0.03 μM<IC50≦0.1 μM; C, 0.1 μM<IC50≦1 μM; D, 1 μM<IC50≦3 μM; ND, not determined. If only data from single experiments are available, the abbreviations are italicized. The Example # of Table 4 corresponds to the compound example number as illustrated in the Examples section.

T1 sequence (P08581 25-1390): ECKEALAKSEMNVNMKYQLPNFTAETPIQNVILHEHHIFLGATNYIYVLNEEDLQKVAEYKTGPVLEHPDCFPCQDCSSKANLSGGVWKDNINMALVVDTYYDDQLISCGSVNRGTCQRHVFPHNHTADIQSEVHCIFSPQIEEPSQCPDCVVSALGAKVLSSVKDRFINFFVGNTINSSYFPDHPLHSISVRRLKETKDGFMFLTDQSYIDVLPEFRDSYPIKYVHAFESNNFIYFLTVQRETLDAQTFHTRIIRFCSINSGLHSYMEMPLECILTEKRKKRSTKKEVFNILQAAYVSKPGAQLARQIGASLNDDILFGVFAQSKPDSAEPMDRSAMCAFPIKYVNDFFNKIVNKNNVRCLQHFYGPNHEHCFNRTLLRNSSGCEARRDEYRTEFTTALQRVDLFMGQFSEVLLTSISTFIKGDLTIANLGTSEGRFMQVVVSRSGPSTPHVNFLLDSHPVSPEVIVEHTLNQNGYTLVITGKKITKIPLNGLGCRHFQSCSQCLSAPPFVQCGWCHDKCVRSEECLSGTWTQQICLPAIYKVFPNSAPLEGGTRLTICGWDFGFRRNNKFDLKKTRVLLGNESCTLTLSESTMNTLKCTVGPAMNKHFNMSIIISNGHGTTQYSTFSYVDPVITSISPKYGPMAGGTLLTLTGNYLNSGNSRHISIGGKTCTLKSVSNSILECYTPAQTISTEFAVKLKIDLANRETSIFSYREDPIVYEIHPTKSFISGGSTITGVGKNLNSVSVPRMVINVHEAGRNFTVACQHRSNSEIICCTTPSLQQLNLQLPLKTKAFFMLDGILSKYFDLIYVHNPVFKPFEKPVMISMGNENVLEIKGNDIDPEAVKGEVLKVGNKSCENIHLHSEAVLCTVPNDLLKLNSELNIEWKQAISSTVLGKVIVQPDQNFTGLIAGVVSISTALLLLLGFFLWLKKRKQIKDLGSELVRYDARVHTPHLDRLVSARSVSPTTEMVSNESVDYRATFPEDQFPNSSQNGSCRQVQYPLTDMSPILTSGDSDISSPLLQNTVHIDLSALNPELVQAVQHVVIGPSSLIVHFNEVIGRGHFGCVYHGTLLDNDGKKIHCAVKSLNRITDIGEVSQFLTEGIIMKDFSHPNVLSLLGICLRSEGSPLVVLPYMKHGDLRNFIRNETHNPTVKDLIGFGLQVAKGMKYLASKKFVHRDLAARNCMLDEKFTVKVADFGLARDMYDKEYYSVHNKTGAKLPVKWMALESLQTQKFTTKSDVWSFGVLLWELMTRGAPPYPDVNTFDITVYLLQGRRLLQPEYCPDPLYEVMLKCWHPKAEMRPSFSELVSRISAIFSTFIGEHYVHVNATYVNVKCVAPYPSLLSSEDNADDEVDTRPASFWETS

IC50 [1] [nM]	IC50 [2] [nM]	Structure (SMILES)
≤ 30	≤ 30	COc1ccc(F)c(Cl)c1[C@@H](CF)c1c[nH]c2ncc(-c3cnn([C@H]4CC[C@H](O)CC4)c3)cc12 [Example 3, trans-4-(4-{3-[(1S)-1-(2-chloro-3-fluoro-6-methoxyphenyl)-2-fluoroethyl]-1H-pyrrolo[2,3-b]pyridin-5-yl}-1H-pyrazol-1-yl)cyclohexanol]
≤ 30	≤ 30	O[C@H]1CC[C@H](n2cc(-c3cnc4[nH]cc([C@H](CF)c5c(OC(F)F)ccc(F)c5Cl)c4c3)cn2)CC1 [Example 5, trans-4-[4-(3-{(1S)-1-[2-Chloro-6-(difluoromethoxy)-3-fluorophenyl]-2-fluoroethyl}-1H-pyrrolo[2,3-b]pyridin-5-yl)-1H-pyrazol-1-yl]cyclohexanol]
–	100 to 1000	Cn1cc(-c2cnc3[nH]cc(C(CF)c4c(Cl)ccc(F)c4Cl)c3c2)cn1 (stereo not shown) [Example 1, 3-[1-(2,6-Dichloro-3-fluorophenyl)-2-fluoroethyl]-5-(1-methyl-1H-pyrazol-4-yl)-1H-pyrrolo[2,3-b]pyridine]
100 to 1000	100 to 1000	O[C@H]1CC[C@H](n2cc(-c3cnc4[nH]cc([C@@H](CF)c5c(OC(F)F)ccc(F)c5Cl)c4c3)cn2)CC1 [Example 4, trans-4-[4-(3-{(1R)-1-[2-Chloro-6-(difluoromethoxy)-3-fluorophenyl]-2-fluoroethyl}-1H-pyrrolo[2,3-b]pyridin-5-yl)-1H-pyrazol-1-yl]cyclohexanol]
